Read-outs that look alike come from different tables or passages of the source.
Key:
Format in all cases: in vivo
[1] = test system: Surinam grass (Brachiaria decumbens); test: Test B pre/postemergence; conditions: Urochloa decumbens; for pest or weed control at 125 g/ha: 125 g ai/ha; for pest or weed control at 500 g/ha: 500 g ai/ha
Summary of the method: (§1)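 Under greenhouse conditions, seeded pots and young plants (1- to 4-leaf, 2 to 18 cm) were treated at the same time with test chemicals in a non-phytotoxic solvent mixture containing surfactant. Response was assessed visually after 13 to 15 days, from 0 (no effect) to 100 (complete control).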

[2] = test system: giant foxtail (Setaria faberii); test: Test B pre/postemergence; conditions: Setaria faberi; for pest or weed control at 125 g/ha: 125 g ai/ha; for pest or weed control at 500 g/ha: 500 g ai/ha
Summary of the method: as §1

[3] = test system: velvetleaf (Abutilon theophrasti); test: Test B pre/postemergence; conditions: Abutilon theophrasti; for pest or weed control at 125 g/ha: 125 g ai/ha; for pest or weed control at 500 g/ha: 500 g ai/ha
Summary of the method: as §1

[4] = test system: pigweed (Amaranthus retroflexus); test: Test B pre/postemergence; conditions: Amaranthus retroflexus; for pest or weed control at 125 g/ha: 125 g ai/ha; for pest or weed control at 500 g/ha: 500 g ai/ha
Summary of the method: as §1

corn (Zea mays) = test: Test B pre/postemergence; conditions: Zea mays
Summary of the method: as §1

[5] = test system: wheat (Triticum aestivum); test: Test B pre/postemergence; conditions: Triticum aestivum; for plant injury at 125 g/ha: 125 g ai/ha; for plant injury at 500 g/ha: 500 g ai/ha
Summary of the method: as §1

[6] = test system: barnyardgrass (Echinochloa crus-galli); test: Test B pre/postemergence; conditions: Echinochloa crus-galli; for pest or weed control at 125 g/ha: 125 g ai/ha; for pest or weed control at 500 g/ha: 500 g ai/ha
Summary of the method: as §1

[7] = test system: cocklebur (Xanthium strumarium); test: Test B pre/postemergence; conditions: Xanthium strumarium; for pest or weed control at 125 g/ha: 125 g ai/ha; for pest or weed control at 500 g/ha: 500 g ai/ha
Summary of the method: as §1

[8] = test system: crabgrass (Digitaria sanguinalis); test: Test B pre/postemergence; conditions: Digitaria sanguinalis; for pest or weed control at 125 g/ha: 125 g ai/ha; for pest or weed control at 500 g/ha: 500 g ai/ha
Summary of the method: as §1

[9] = test system: lambsquarters (Chenopodium album); test: Test B pre/postemergence; conditions: Chenopodium album; for pest or weed control at 125 g/ha: 125 g ai/ha; for pest or weed control at 500 g/ha: 500 g ai/ha
Summary of the method: as §1

[10] = test system: morningglory (Ipomoea coccinea); test: Test B pre/postemergence; conditions: Ipomoea; for pest or weed control at 125 g/ha: 125 g ai/ha; for pest or weed control at 500 g/ha: 500 g ai/ha
Summary of the method: as §1

rice (Oryza sativa) = test: Test B flooded paddy test; conditions: Oryza sativa, Flood, 1000 g ai/ha; scale 0 to 100; read-out: Plant response rating, Rice
Summary of the method: (§2)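 Visual injury scoring (0 = no effect, 100 = complete control) versus controls made 13 to 15 days after treatment in the greenhouse. Test species were grown in flooded paddy to the 2-leaf stage: rice, barnyardgrass, umbrella sedge, duck salad.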

[11] = test system: umbrella sedge (Cyperus difformis); test: Test B flooded paddy test; conditions: Cyperus difformis, Flood, 1000 g ai/ha; scale 0 to 100; read-out: Plant response rating, Sedge, Umbrella
Summary of the method: as §2

[12] = test system: barnyardgrass (Echinochloa crus-galli); test: Test B flooded paddy test; conditions: Echinochloa crus-galli, Flood, 1000 g ai/ha; scale 0 (no effect) to 100 (complete control); read-out: Plant response rating, Barnyardgrass
Summary of the method: as §2

[13] = test system: duck salad (Heteranthera limosa); test: Test B flooded paddy test; conditions: Heteranthera limosa, Flood, 1000 g ai/ha; scale 0 to 100; read-out: Plant response rating, Ducksalad
Summary of the method: as §2

wild oat (Avena fatua) = test: Test B postemergence; conditions: Avena fatua, post-emergence
Summary of the method: as §1

[14] = test system: blackgrass (Alopecurus myosuroides); test: Test B postemergence; conditions: Alopecurus myosuroides, post-emergence
Summary of the method: as §1

## Nc1nc(C2CC2)nc(C=O)c1Br [Compound 26]
[1]; post-emergence, Postemergence, scale 0 to 100 (0 no effect, 100 complete control), read-out: Surinam Grass plant response rating
  pest or weed control at 125 g/ha: 30%
[1]; post-emergence, Postemergence, scale 0 to 100, read-out: Plant response rating, Surinam Grass
  pest or weed control at 500 g/ha: 60%
[1]; pre-emergence, Preemergence, scale 0 to 100 (0 no effect, 100 complete control), read-out: Plant response rating, Surinam Grass
  pest or weed control at 125 g/ha: 10%
[1]; pre-emergence, Preemergence, scale 0 to 100 (0 no effect, 100 complete control), read-out: Surinam Grass plant response rating
  pest or weed control at 500 g/ha: 80%
[2]; post-emergence, Postemergence, scale 0 to 100 (0 no effect, 100 complete control), read-out: Foxtail, Giant plant response rating
  pest or weed control at 125 g/ha: 30%
[2]; post-emergence, Postemergence, scale 0 to 100, read-out: Plant response rating, Foxtail, Giant
  pest or weed control at 500 g/ha: 40%
[2]; pre-emergence, Preemergence, scale 0 to 100 (0 no effect, 100 complete control), read-out: Plant response rating, Foxtail, Giant
  pest or weed control at 125 g/ha: 10%
[2]; pre-emergence, Preemergence, scale 0 to 100 (0 no effect, 100 complete control), read-out: Foxtail, Giant plant response rating
  pest or weed control at 500 g/ha: 80%
[3]; post-emergence, Postemergence, scale 0 to 100 (0 no effect, 100 complete control), read-out: Velvetleaf plant response rating
  pest or weed control at 125 g/ha: 40%
[3]; post-emergence, Postemergence, scale 0 to 100, read-out: Plant response rating, Velvetleaf
  pest or weed control at 500 g/ha: 70%
[3]; pre-emergence, Preemergence, scale 0 to 100 (0 no effect, 100 complete control), read-out: Plant response rating, Velvetleaf
  pest or weed control at 125 g/ha: 90%
[3]; pre-emergence, Preemergence, scale 0 to 100 (0 no effect, 100 complete control), read-out: Velvetleaf plant response rating
  pest or weed control at 500 g/ha: 100%
[4]; post-emergence, Postemergence, scale 0 to 100 (0 no effect, 100 complete control), read-out: Pigweed plant response rating
  pest or weed control at 125 g/ha: 70%
[4]; post-emergence, Postemergence, scale 0 to 100, read-out: Plant response rating, Pigweed
  pest or weed control at 500 g/ha: 80%
[4]; pre-emergence, Preemergence, scale 0 to 100 (0 no effect, 100 complete control), read-out: Plant response rating, Pigweed
  pest or weed control at 125 g/ha: 90%
[4]; pre-emergence, Preemergence, scale 0 to 100 (0 no effect, 100 complete control), read-out: Pigweed plant response rating
  pest or weed control at 500 g/ha: 100%
Corn (Zea mays); post-emergence, Postemergence, 125 g ai/ha, scale 0 to 100 (0 no effect, 100 complete control), read-out: Corn plant response rating
  plant injury at 125 g/ha: 0%
Corn (Zea mays); post-emergence, Postemergence, 500 g ai/ha, scale 0 to 100
  Corn plant response rating (crop injury, 0 = no effect, 100 = complete kill) at 500 g/ha: 20%
Corn (Zea mays); pre-emergence, Preemergence, 125 g ai/ha, scale 0 to 100 (0 no effect, 100 complete control)
  Corn plant response rating (crop injury, 0 = no effect, 100 = complete kill) at 125 g/ha: 30%
Corn (Zea mays); pre-emergence, Preemergence, 500 g ai/ha, scale 0 to 100 (0 no effect, 100 complete control), read-out: Corn plant response rating
  plant injury at 500 g/ha: 80%
[5]; post-emergence, Postemergence, scale 0 to 100 (0 no effect, 100 complete control), read-out: Wheat plant response rating
  plant injury at 125 g/ha: 30%
[5]; post-emergence, Postemergence, scale 0 to 100, read-out: Plant response rating, Wheat
  plant injury at 500 g/ha: 30%
[5]; pre-emergence, Preemergence, scale 0 to 100 (0 no effect, 100 complete control), read-out: Plant response rating, Wheat
  plant injury at 125 g/ha: 30%
[5]; pre-emergence, Preemergence, scale 0 to 100 (0 no effect, 100 complete control), read-out: Wheat plant response rating
  plant injury at 500 g/ha: 60%
[6]; post-emergence, Postemergence, scale 0 to 100 (0 no effect, 100 complete control), read-out: Barnyardgrass plant response rating
  pest or weed control at 125 g/ha: 20%
[6]; post-emergence, Postemergence, scale 0 to 100, read-out: Plant response rating, Barnyardgrass
  pest or weed control at 500 g/ha: 60%
[6]; pre-emergence, Preemergence, scale 0 to 100 (0 no effect, 100 complete control), read-out: Plant response rating, Barnyardgrass
  pest or weed control at 125 g/ha: 50%
[6]; pre-emergence, Preemergence, scale 0 to 100 (0 no effect, 100 complete control), read-out: Barnyardgrass plant response rating
  pest or weed control at 500 g/ha: 90%
[7]; post-emergence, Postemergence, scale 0 to 100 (0 no effect, 100 complete control), read-out: Cocklebur plant response rating
  pest or weed control at 125 g/ha: 80%
[7]; post-emergence, Postemergence, scale 0 to 100, read-out: Plant response rating, Cocklebur
  pest or weed control at 500 g/ha: 90%
[7]; pre-emergence, Preemergence, scale 0 to 100 (0 no effect, 100 complete control), read-out: Plant response rating, Cocklebur
  pest or weed control at 125 g/ha: 80%
[7]; pre-emergence, Preemergence, scale 0 to 100 (0 no effect, 100 complete control), read-out: Cocklebur plant response rating
  pest or weed control at 500 g/ha: 90%
[8]; post-emergence, Postemergence, scale 0 to 100 (0 no effect, 100 complete control), read-out: Crabgrass plant response rating
  pest or weed control at 125 g/ha: 40%
[8]; post-emergence, Postemergence, scale 0 to 100, read-out: Plant response rating, Crabgrass
  pest or weed control at 500 g/ha: 70%
[8]; pre-emergence, Preemergence, scale 0 to 100 (0 no effect, 100 complete control), read-out: Plant response rating, Crabgrass
  pest or weed control at 125 g/ha: 30%
[8]; pre-emergence, Preemergence, scale 0 to 100 (0 no effect, 100 complete control), read-out: Crabgrass plant response rating
  pest or weed control at 500 g/ha: 90%
[9]; post-emergence, Postemergence, scale 0 to 100 (0 no effect, 100 complete control), read-out: Lambsquarters plant response rating
  pest or weed control at 125 g/ha: 70%
[9]; post-emergence, Postemergence, scale 0 to 100, read-out: Plant response rating, Lambsquarters
  pest or weed control at 500 g/ha: 80%
[9]; pre-emergence, Preemergence, scale 0 to 100 (0 no effect, 100 complete control), read-out: Plant response rating, Lambsquarters
  pest or weed control at 125 g/ha: 100%
[9]; pre-emergence, Preemergence, scale 0 to 100 (0 no effect, 100 complete control), read-out: Lambsquarters plant response rating
  pest or weed control at 500 g/ha: 100%
[10]; post-emergence, Postemergence, scale 0 to 100 (0 no effect, 100 complete control), read-out: Morningglory plant response rating
  pest or weed control at 125 g/ha: 70%
[10]; post-emergence, Postemergence, scale 0 to 100, read-out: Plant response rating, Morningglory
  pest or weed control at 500 g/ha: 80%
[10]; pre-emergence, Preemergence, scale 0 to 100 (0 no effect, 100 complete control), read-out: Plant response rating, Morningglory
  pest or weed control at 125 g/ha: 90%
[10]; pre-emergence, Preemergence, scale 0 to 100 (0 no effect, 100 complete control), read-out: Morningglory plant response rating
  pest or weed control at 500 g/ha: 100%
Rice (Oryza sativa)
  plant injury at 1000 g/ha: 70%
[11]
  pest or weed control at 1000 g/ha: 80%
[12]
  pest or weed control at 1000 g/ha: 60%
[13]
  pest or weed control at 1000 g/ha: 90%
Wild oat (Avena fatua); 125 g ai/ha, scale 0 to 100 (0 no effect, 100 complete control), read-out: Oat, Wild plant response rating
  pest or weed control at 125 g/ha: 30%
Wild oat (Avena fatua); 500 g ai/ha, scale 0 to 100, read-out: Plant response rating, Oat, Wild
  pest or weed control at 500 g/ha: 40%
[14]; 125 g ai/ha, scale 0 to 100 (0 no effect, 100 complete control), read-out: Blackgrass plant response rating
  pest or weed control at 125 g/ha: 40%
[14]; 500 g ai/ha, scale 0 to 100, read-out: Plant response rating, Blackgrass
  pest or weed control at 500 g/ha: 70%

Reference: patent US8802597B2, “Herbicidal pyrimidines” (E I du Pont de Nemours and Company, priority 2003, dated 2014)
